{
  "source": "patent US10287334B2",
  "about": "“Non-narcotic CRMP2 peptides targeting sodium channels for chronic pain” (priority 2014, dated 2019)",
  "key": {"[1]": {"test_system": "rat dorsal root ganglion (DRG) neurons", "test": "Ouabain-induced increase in cytosolic Na+ (SBFI imaging) in DRG neurons", "assay_type": "cell-based"}, "[2]": {"test_system": "rat spared nerve injury (SNI) model", "assay_type": "in vivo"}, "[3]": {"test_system": "rat spared nerve injury (SNI) model", "assay_type": "in vivo", "remark": "listed apart in the source"}, "[4]": {"test_system": "naïve male SD rats", "conditions": "tat-CSM-1S by spinal delivery, over a 24 hour period"}, "[5]": {"conditions": "SNI rats, dose not given, p<0.05 vs BL-Post SNI"}},
  "note": "“Also recorded” adds a separate entry of the source. Like-named read-outs stand apart in the source and are kept apart here.",
  "data": [
    {"molecule": "Protox-II: a spider toxin that preferentially blocks NaV1.7 (YCQKWMWTCDSERKCCEGMVCRLWCKKKLW)", "values": [
      {"measurement": "ouabain-induced increase in [Na+]c", "setting": "[1]; 10 μM Protox-II, 1 mM ouabain", "result": "inhibited; also recorded: attenuate"}
    ]},
    {"molecule": "NCC1(CC(=O)O)CCCCC1", "note": "[gabapentin]", "values": [
      {"measurement": "antihyperalgesic effect in SNI (reference drugs)", "setting": "[2]; [5]", "result": "Antihyperalgesic effects"},
      {"measurement": "antiallodynic effect in SNI (reference drugs)", "setting": "[3]; [5]", "result": "Antiallodynic effects"},
      {"measurement": "motor impairment / sedation on the rotarod", "setting": "[4]", "result": "decrease in the ability of naïve rats to remain on the rotating rod"},
      {"measurement": "motor impairment / sedation on the rotarod", "setting": "[4]; listed as Gabapentin", "result": "significant sedation/motor impairment"}
    ]},
    {"molecule": "NC1=N[C@H](O)[C@H]2[C@H]3O[C@]4(O)O[C@@H]([C@@H](O)[C@@]2(N1)[C@@H]4O)[C@]3(O)CO", "note": "[tetrodotoxin]", "values": [
      {"measurement": "ouabain-induced increase in [Na+]c", "setting": "[1]", "result": "inhibited; also recorded: attenuate"}
    ]},
    {"molecule": "CN1CC[C@]23c4c5ccc(O)c4O[C@H]2[C@@H](O)C=C[C@H]3[C@H]1C5", "note": "[morphine]", "values": [
      {"measurement": "antihyperalgesic effect in SNI (reference drugs)", "setting": "[2]; rat, in vivo", "result": "Antihyperalgesic effects"},
      {"measurement": "antiallodynic effect in SNI (reference drugs)", "setting": "[3]; rat, in vivo", "result": "Antiallodynic effects"}
    ]}
  ]
}
